The test system of series [1] is Jurkat cells. Briefly: DNA fragmentation analysis in Jurkat cells. In kind it is cell-based, human. The note with it: 50 μM compound or 1 μM staurosporin, 8 hr.
Series [2] relates to caspase-3 (DEVDase activity). The series is described as follows: DEVDase fluorescence screen in HeLa cell S-100 cytoplasmic extracts. It counts as biochemical. Conditions: in vitro fluorescence assay, HeLa S-100 extracts with cyto c. The source says: In order to identify compounds that modulate apoptosis, a chemical genetics approach was utilized to screen for molecules that target components of the apoptosis pathway (see, T. U. Mayer et al., Science 286, 971-4 (1999)). An in vitro screen using cytoplasmic extracts was adapted for apoptosis to a 96-well format and used to test an in-house library of ˜3500 compounds (see, T. Fernandes-Alnemri et al, Proc Natl Acad Sci USA 93, 7464-9 (1996); X. Liu, C. N. Kim, J. Yang, R. Jemmerson, X. Wang, Cell 86, 147-57 (1996); L. M. Leoni et al., Proc Natl Acad Sci USA 95, 9567-71 (1998)). Briefly, individual compounds were added to HeLa cell S-100 cytoplasmic extracts at a final concentration of 1 mM and apoptosis was induced by adding bovine heart cyto c (HeLa cell cytoplasmic extracts were prepared according to previously published reports (see, P. Li et al., Cell 91, 479-89 (1997)). Compounds were distributed into 96-well microtiter plates at a final concentration of 1 mM. To each well was added 250 μg of total protein from cytoplasmic extracts in HEB buffer (50 mM Hepes pH 7.4, 50 mM KCl, 5 mM EGTA, 2 mM MgCl), with 2 mM DTT, 2 μM cyto c, and 0.5 μM DEVD-AFC substrate in a total of 150 μL. Plates were incubated at 37° C. and fluorescence was read in a LJL Biosystems plate reader at 10 min intervals). Activation of caspase-3 was monitored by cleavage of a fluorogenic substrate, Asp-Glu-Val-Asp-7-amino-4-trifluoromethylcoumarin (DEVDase activity). As designed, the DEVDase fluorescence screen encompasses the release of cyto c from the mitochondria to the activation of caspase-3. Possible targets include cyto c, Apaf-1, caspase-9, caspase-3, inhibitors of apoptosis (IAPs), and possible unidentified components present in the cytosol.

For series [3], the system named is Jurkat cells. Briefly: Caspase-3 activation in Jurkat cells (immunoblot). It counts as cell-based, human. The note with it: 50 μM compound or 1 μM staurosporin, 6 hr. The method, then: (§1) (C) DNA fragmentation analysis. […] Cell viability assay.
(§2) Compounds were then tested for their ability to induce apoptosis in live cells. The ability of the compounds to activate caspase-3 in a Jurkat cell line was first assayed. […] This same pattern was seen when we assayed for the cleavage of poly (ADP-ribose) polymerase (PARP), a cellular substrate of caspases-3 and -7 (see, D. W. Nicholson, Cell Death Differ 6, 1028-42 (1999)). Upon apoptosis, PAR-P is cleaved from a 116 kD to an 85 kD protein.

In series [4] the test system is Jurkat cells. The series is described as follows: PARP cleavage in Jurkat cells (immunoblot). It counts as cell-based, human. Conditions: 50 μM compound or 1 μM staurosporin, 6 hr. The protocol:
as §1, §2
(In general: A western blot detects proteins with antibodies after separation by electrophoresis.)

Series [5] relates to peripheral blood lymphocytes (PBL). The series is described as follows: Cell viability, PBL. It counts as cell-based, human. The note with it: normal cell. The source says:
(§3) Samples were then probed by immunoblot for (A) caspase-3 activation or (B) cleavage of PARP. (C) DNA fragmentation analysis. […] The DNA was isolated by phenol/chloroform extraction, separated on a 2% agarose gel and visualized by ethidium bromide staining. Cell viability assay.
(§4) Normal cell lines include peripheral blood lymphocytes (PBL) isolated from donated human blood, non-transformed mammary fibroblasts (MCF-10A), human mammary epithelial cells (HMEC), human umbilical vein endothelial cells (HUVEC), and human prostate epithelial cells (PREC). Transformed cell lines include cell lines from leukemia, breast, lung, ovarian, and epidermal cancers (Table 1).

The subject of a further series is CCRF-CEM. The series is described as follows: Cell viability, CCRF-CEM. It counts as cell-based, human. Conditions: leukemia.
Source text: as §3, §4

A further series deals with NCI-H23. The series is described as follows: Cell viability, NCI-H23. The note with it: NCI-H23, lung. It counts as cell-based, human.
In series [6] the test system is Normal (PBL) and cancer (Jurkat, Molt-4, CCRF-CEM) lymphocyte cell lines. The series is described as follows: Cell viability, normal and cancer lymphocyte cell lines compared. The note with it: all four lymphocyte cell lines, normal and cancerous.
Source text: as §3, §4

The test system of another series is procaspase-3 processing. Briefly: Procaspase-3 processing by capture ELISA in HeLa cell extract (cyto c / compound titration). It counts as biochemical. The note with it: cyto c titrated into HeLa cell extract, no compound; read-out: concentration for half-maximal activation (AC50) of procaspase-3 processing. The protocol:
FIG. 2 depicts activity of compounds 1-5 in cell lysates. (A) Compound activation is cyto c dependent. Cyto c was titrated into S-100 cytoplasmic extracts with vehicle alone or 20 μM compound and procaspase-3 processing was assayed by capture ELISA. (B) Compound activation is dose-dependent. Compounds or vehicle were titrated into S-100 cytoplasmic extracts at a cyto c concentration of 1.25 μM and procaspases-3 processing was assayed by capture ELISA. (C) Immunoblot assay of compound-induced caspase activation. Samples at the 20 μM compound concentration in (B) were separated on SDS-polyacrylamide gel and transferred to polyvinyl membrane. […]
In order to determine if these compounds required cyto c for caspase-3 activation, cyto c was titrated into HeLa cell extract in the presence and absence of compounds and procaspase-3 processing was monitored by capture ELISA (Cyto c was titrated into lysates as detailed in the screening procedure. Capture ELISA assay for active caspase-3 was adapted from Aragones et al., www.biocarta.com. Briefly, a mouse monoclonal antibody recognizing both full-length and cleaved caspase-3 (capture antibody, Transduction Laboratories) was immobilized onto an immunosorp plate and blocked with 5% milk, and 25 μL of the caspase activation reaction in 75 μL Superblock (Pierce) was added. […]
In general terms: An ELISA detects its analyte on a solid surface through an enzyme-linked reagent.

The test system of series [7] is Jurkat cells transfected with Apaf-1 siRNA. The series is described as follows: Viability of Jurkat cells transfected with Apaf-1 siRNA (MTT test). In kind it is cell-based, human. Conditions: 20 nM Apaf-1 siRNA 48 hr, then 24 hr incubation. The method, then: (A) Jurkat cells were transfected with 20 nM Apaf-1 siRNA for 48 hr and half the cells were lysed and probed with antibodies to Apaf-1, caspase-9, and caspase-3. The other half of the cells was incubated with varying concentrations of (B), compound 2 or (C), Fas ligand for 24 hr and assayed for viability by MTT test. (D) SK-OV-3 cells were transiently transfected with Apaf-1 or vector control for 24 hr and then incubated with vary concentrations of compound 2 and assayed for viability. (E) Cyto c was titrated into SK-OV-3 cell lysate in the presence of 300 μM dATP, with or without 150 nM purified Apaf-1 and 20 μM compound 2 as indicated.
In order to verify that compound 2 targets the apoptosome as a function of its cytotoxic activity, small interfering RNA (siRNA) was used to silence the expression of Apaf-1 in Jurkat cells. Sense and anti-sense oligonucleotides corresponding to nucleotides 978-998 of Apaf-1 (([…]) as reported by Lassus et al. Science 297, 1352-4. (2002)), were purchased from Dharmacon. Transfection of siRNA into Jurkat cells was accomplished using GeneSilencer (Gene Therapy Systems) according to manufacturer's instructions. There was a significant decrease in the level of expression of Apaf-1 48 hr after transfection of an Apaf-1 specific siRNA, without affecting the expression of caspases in the pathway (FIG. 5A).

Consider `CCOC(=O)NCc1ccc(Cl)c(Cl)c1` [Compound 1], for which the DNA fragmentation result with Jurkat cells [1] is recorded as “less pronounced effect”. Besides, the “activation of DEVDase activity” value in [2] is recorded as “most active”. The “processing of procaspase-3” value in the series on Jurkat cells [3] is given as “no processing”.
In the case of `O=C1Cc2ccccc2N1Cc1ccc(Cl)c(Cl)c1` [Compound 3], the DNA fragmentation entry in the series on Jurkat cells [1] is given as “induced DNA fragmentation”. For the same molecule, the “activation of DEVDase activity” value in [2] is given as “strongly activated DEVDase activity”. Besides, in the series with Jurkat cells [4], the “cleavage of PARP” value is “limited processing”. Besides, in the series on Jurkat cells [3], the “processing of procaspase-3” value is “significant processing”.
Consider `CN[C@@H]1C[C@H]2O[C@@](C)([C@@H]1OC)n1c3ccccc3c3c4c(c5c6ccccc6n2c5c31)C(=O)NC4` [Staurosporin, reference compound], for which the figures for the IC50 (in series [5]; in the series on CCRF-CEM; with NCI-H23) were 69 nM, 69 nM and 85 nM, respectively. Moreover, the DNA fragmentation entry in the series on Jurkat cells [1] was ““laddering” effect”. The “cleavage of PARP” value in the series on Jurkat cells [4] is recorded as “complete cleavage”. In addition, the susceptibility to cytotoxicity result in [6] is reported as “equally susceptible”. Moreover, the “processing of procaspase-3” value in the series on Jurkat cells [3] was “significant processing”.
In the case of “cyto c: bovine heart cyto c added to cytoplasmic extracts to induce apoptosis”, the AC50 with procaspase-3 processing is around 1750 nM.

B1: Fas Ligand: induces apoptosis which proceeds through the caspase-8 pathway (protein, UniProt P48023 130-281, looked up)
Tumor necrosis factor ligand …: QIGHPSPPPEKKELRKVAHLTGKSNSRSMPLEWEDTYGIVLLSGVKYKKGGLVINETGLYFVYSKVYFRGQSCNNLPLSHKVYMRNSKYPQDLVMMEGKMMSYCTTGQMWARSSYLGAVFNLTSADHLYVNVSELSLVNFEESQTFFGLYKL
With B1, the “cell killing after silencing of Apaf-1” value in [7] is given as “still sensitive”.

These data come from patent US20030229132A1, “Small molecule modulators of apoptosis” (priority 2002, published 2003).
